72 compounds from ChEMBL document CHEMBL4052722, “Virtual screening, synthesis and biological evaluation of DNA intercalating antiviral agents” (Bioorg Med Chem Lett, 2017) can be followed below.

Assay [1] relates to Vesicular stomatitis virus. Description: Antiviral activity against Vesicular stomatitis virus at 0.2 to 620 uM after 24 hrs post infection relative to control. The assay is classed as functional.
The species entered for assay [2] is Bos taurus. Description: Displacement of ethidium bromide from calf thymus DNA by fluorescence binding assay.

In assay [1], `O=C(CCCN1C(=O)c2cccc3cccc(c23)C1=O)NCCN1CCOCC1` had an Activity of 5%. Also, the log Ka in assay [2] worked out at 5.87.

Consider `CN1CCN(CCCCn2c3ccccc3c3nc4ccccc4nc32)CC1`, for which the Activity in assay [1] came to 10%. The same compound had a log Ka in assay [2] of 6.04.

`CCN(CC)CCOC(=O)CCCn1c2ccccc2c2nc3ccccc3nc21`: the Activity in assay [1] stood at 0%. The compound further gave a log Ka in assay [2] of 5.45.

Take `O=C(CCCn1c2ccccc2c2nc3ccccc3nc21)OCCCN1CCOCC1`: the Activity in assay [1] worked out at 100%. Further, the log Ka in assay [2] came out at 5.35.

Regarding `O=C(CCCN1C(=O)c2cccc3cccc(c23)C1=O)NCCCN1CCOCC1`, the Activity in assay [1] came out at 30%. Moreover, the log Ka in assay [2] was determined as 5.07.

The compound `CCN(CC)CCN1C(=O)/C(=N\NC(=O)CCN2CCCCC2)c2ccccc21` yielded an Activity in assay [1] of 100%. The compound further showed a log Ka in assay [2] of 5.39.

In turn, `CCN(CC)CCNC(=O)CCCN1C(=O)c2cccc3cccc(c23)C1=O` displayed an Activity in assay [1] of 20%. In assay [2], this compound showed a log Ka of 6.13.

As for `CCN(CC)CC(=O)N/N=C1\C(=O)Nc2ccccc21`, the Activity in assay [1] is given as 80%. This compound gave a log Ka in assay [2] of 5.96.

Compound `CN(C)CCCNC(=O)CCCCCN1C(=O)c2cccc3cccc(c23)C1=O` registered an Activity in assay [1] of 100%. The log Ka in assay [2] was 6.1.

In assay [1], `CCN(CC)CCOCCn1c2ccccc2c2nc3ccccc3nc21` showed an Activity of 56%. In addition, in assay [2], the log Ka worked out at 5.26.

`CCN(CC)CC(=O)N/N=C1/C(=O)Nc2ccc3ccccc3c21` displayed an Activity in assay [1] of 30%. Besides, the log Ka in assay [2] was 6.3.

For the compound `c1ccc2nc3c(nc2c1)c1ccccc1n3CCOCCN1CCOCC1`, the Activity in assay [1] is reported as 50%. Besides, in assay [2], the log Ka stood at 5.32.

In the case of `CCN(CC)CCCNC(=O)CCCCCN1C(=O)c2cccc3cccc(c23)C1=O`, the Activity in assay [1] is 50%. The log Ka in assay [2] amounted to 6.81.

Turning to `O=C(CN1CCCCCC1)N/N=C1\C(=O)Nc2ccccc21`, the Activity in assay [1] came out at 80%. In assay [2], the log Ka was 5.49.

Regarding `CCN(CC)CCCCCCn1c2ccccc2c2nc3ccccc3nc21`, the Activity in assay [1] is listed as 75%. This compound also came in with a log Ka in assay [2] of 5.65.

`c1ccc2nc3c(nc2c1)c1ccccc1n3CCN1CCCCCC1` showed an Activity in assay [1] of 90%. Further, in assay [2], the log Ka was found to be 6.16.

On to `CN(C)CCCCn1c2ccccc2c2nc3ccccc3nc21`, for which the Activity in assay [1] stood at 30%. Besides, the log Ka in assay [2] was found to be 5.61.

As for `c1ccc2c(c1)ccc1c2c2nc3ccccc3nc2n1CCN1CCOCC1`, in assay [1], the Activity is on record as 10%. The compound also registered a log Ka in assay [2] of 6.94.

The compound `CCN(CC)CCn1c2ccccc2c2nc3ccccc3nc21` showed an Activity in assay [1] of 90%. This compound also showed a log Ka in assay [2] of 6.07.

`c1ccc2nc3c(nc2c1)c1ccccc1n3CCCCCN1CCCCC1`: in assay [1], the Activity was 89%. This compound also had a log Ka in assay [2] of 5.68.

For the compound `O=C(Cn1c2ccccc2c2nc3ccccc3nc21)NCCNCCO`, the Activity in assay [1] came to 70%. For the same compound, the log Ka in assay [2] is 5.37.

Take `c1ccc2c(c1)ccc1c2c2nc3ccccc3nc2n1CCN1CCCCC1`: the Activity in assay [1] was found to be 20%. The log Ka in assay [2] amounted to 6.61.

Compound `CN1CCN(CCCn2c3ccccc3c3nc4ccccc4nc32)CC1` registered an Activity in assay [1] of 39%. In assay [2], this compound showed a log Ka of 6.37.

Regarding `CC1CCN(CCn2c3ccc4ccccc4c3c3nc4ccccc4nc32)CC1`, the Activity in assay [1] amounted to 30%. Besides, the log Ka in assay [2] was 6.83.

In assay [1], `O=C(CCCn1c2ccccc2c2nc3ccccc3nc21)OCCN1CCCCC1` registered an Activity of 25%. The compound also gave a log Ka in assay [2] of 5.57.

`CN(C)CCOC(=O)Cn1c2ccccc2c2nc3ccccc3nc21`: the Activity in assay [1] was 0%. The compound also returned a log Ka in assay [2] of 5.46.

On to `CN(C)CCCCCn1c2ccccc2c2nc3ccccc3nc21`, for which, in assay [1], the Activity was found to be 68%. In assay [2], this compound displayed a log Ka of 5.66.

`OCCNCCn1c2ccc3ccccc3c2c2nc3ccccc3nc21` came in with an Activity in assay [1] of 20%. In assay [2], this compound came in with a log Ka of 6.8.

`CCN(CC)CCN1C(=O)/C(=N\NC(=O)CN2CCN(C)CC2)c2ccccc21` had an Activity in assay [1] of 0%. This compound displayed a log Ka in assay [2] of 5.99.

Consider `CCN(CC)CCCOC(=O)Cn1c2ccccc2c2nc3ccccc3nc21`, for which the Activity in assay [1] is reported as 0%. For the same compound, the log Ka in assay [2] was 5.17.

Regarding `c1ccc2nc3c(nc2c1)c1ccccc1n3CCCCCCN1CCOCC1`, the Activity in assay [1] was found to be 6%. This compound also gave a log Ka in assay [2] of 5.73.

In assay [1], `O=C(Cn1c2ccccc2c2nc3ccccc3nc21)OCCN1CCOCC1` yielded an Activity of 45%. The log Ka in assay [2] came out at 5.18.

Compound `O=C(CN1CCOCC1)N/N=C1/C(=O)Nc2ccc3ccccc3c21` came in with an Activity in assay [1] of 15%. In assay [2], the log Ka turned out to be 6.76.

For `CCN(CC)CCCOC(=O)CCCn1c2ccccc2c2nc3ccccc3nc21`, the Activity in assay [1] is on record as 0%. For the same compound, the log Ka in assay [2] is 5.29.

For `CCN(CC)CCOC(=O)Cn1c2ccccc2c2nc3ccccc3nc21`, in assay [1], the Activity was 45%. In addition, in assay [2], the log Ka was 5.42.

As for `CC1CCCCN1CCn1c2ccccc2c2nc3ccccc3nc21` (centres undefined), the Activity in assay [1] is on record as 90%. Also, in assay [2], the log Ka is 5.19.

`OCCNCCCCn1c2ccccc2c2nc3ccccc3nc21` registered an Activity in assay [1] of 32%. Further, the log Ka in assay [2] turned out to be 5.96.

`c1ccc2nc3c(nc2c1)c1ccccc1n3CCCN1CCCCC1` returned an Activity in assay [1] of 28%. This compound returned a log Ka in assay [2] of 6.04.

In assay [1], `CCN(CC)CCCCCn1c2ccccc2c2nc3ccccc3nc21` displayed an Activity of 12%. In assay [2], the log Ka was found to be 5.61.

As for `CC1CCCCN1CCCCn1c2ccccc2c2nc3ccccc3nc21` (centres undefined), the Activity in assay [1] was found to be 26%. The log Ka in assay [2] was determined as 5.6.

In the case of `c1ccc2nc3c(nc2c1)c1ccccc1n3CCCN1CCOCC1`, in assay [1], the Activity turned out to be 25%. Moreover, the log Ka in assay [2] worked out at 6.09.

As to `O=C(CN1CCCCCC1)N/N=C1/C(=O)Nc2ccc3ccccc3c21`, the Activity in assay [1] was 20%. In assay [2], this compound had a log Ka of 6.52.

For the compound `CCN(CC)CCN1C(=O)/C(=N\NC(=O)CCN2CCN(C)CC2)c2ccccc21`, the Activity in assay [1] came to 100%. The compound also registered a log Ka in assay [2] of 6.15.

As to `c1ccc2nc3c(nc2c1)c1ccccc1n3CCCCN1CCCCC1`, in assay [1], the Activity is 11%. In assay [2], the log Ka was 5.93.

In assay [1], `CN(C)CCCn1c2ccccc2c2nc3ccccc3nc21` gave an Activity of 23%. For the same compound, in assay [2], the log Ka is 6.01.

In assay [1], `CC1CCN(CC(=O)N/N=C2/C(=O)Nc3ccc4ccccc4c32)CC1` showed an Activity of 40%. For the same compound, the log Ka in assay [2] was found to be 7.11.

Compound `CCN(CC)CCn1c2ccc3ccccc3c2c2nc3ccccc3nc21` showed an Activity in assay [1] of 14%. Also, the log Ka in assay [2] worked out at 6.79.

Compound `c1ccc2nc3c(nc2c1)c1ccccc1n3CCOCCN1CCCCC1` registered an Activity in assay [1] of 51%. The log Ka in assay [2] came to 5.19.

With `CCCN(CCC)CCn1c2ccc3ccccc3c2c2nc3ccccc3nc21`, the Activity in assay [1] worked out at 16%. In addition, the log Ka in assay [2] was 6.91.

`CN1CCN(CC(=O)N/N=C2\C(=O)Nc3ccc4ccccc4c32)CC1` displayed an Activity in assay [1] of 70%. The log Ka in assay [2] was 5.99.

With `OCCNCCn1c2ccccc2c2nc3ccccc3nc21`, the Activity in assay [1] is reported as 80%. The log Ka in assay [2] was found to be 6.31.

In assay [1], `CN(C)CCn1c2ccc3ccccc3c2c2nc3ccccc3nc21` came in with an Activity of 21%. This compound came in with a log Ka in assay [2] of 6.94.

In turn, `O=C(CN1CCCC1)N/N=C1/C(=O)Nc2ccc3ccccc3c21` gave an Activity in assay [1] of 10%. In assay [2], this compound showed a log Ka of 6.44.

In the case of `c1ccc2nc3c(nc2c1)c1ccccc1n3CCN1CCOCC1`, the Activity in assay [1] was 85%. The compound further yielded a log Ka in assay [2] of 5.89.

`CCN(CC)CCN1C(=O)/C(=N\NC(=O)CN2CCOCC2)c2ccccc21` registered an Activity in assay [1] of 8%. In assay [2], this compound registered a log Ka of 6.21.

In turn, `CCCN(CCC)CCCn1c2ccccc2c2nc3ccccc3nc21` had an Activity in assay [1] of 41%. Also, the log Ka in assay [2] came out at 6.13.

The compound `O=C(Cn1c2ccccc2c2nc3ccccc3nc21)NCCCNCCO` came in with an Activity in assay [1] of 72%. In assay [2], this compound displayed a log Ka of 5.06.

In turn, `O=C(CCCCCN1C(=O)c2cccc3cccc(c23)C1=O)NCCCN1CCOCC1` returned an Activity in assay [1] of 50%. The log Ka in assay [2] came out at 6.03.

Regarding `CN(C)CCOCCn1c2ccccc2c2nc3ccccc3nc21`, the Activity in assay [1] is recorded as 32%. The log Ka in assay [2] stood at 5.59.

The compound `c1ccc2nc3c(nc2c1)c1ccccc1n3CCCCCN1CCOCC1` came in with an Activity in assay [1] of 77%. The same compound displayed a log Ka in assay [2] of 5.73.

For `CCN(CC)CCCNC(=O)CCCN1C(=O)c2cccc3cccc(c23)C1=O`, the Activity in assay [1] is given as 15%. In addition, in assay [2], the log Ka was 6.21.

As to `CCCCN(CC)CCn1c2ccccc2c2nc3ccccc3nc21`, in assay [1], the Activity is recorded as 50%. This compound had a log Ka in assay [2] of 6.01.

For the compound `O=C(CCN1C(=O)c2cccc3cccc(c23)C1=O)NCCN1CCOCC1`, the Activity in assay [1] amounted to 5%. The compound also yielded a log Ka in assay [2] of 5.78.

`O=C(CN1CCCCC1)N/N=C1/C(=O)Nc2ccc3ccccc3c21`: the Activity in assay [1] amounted to 10%. The log Ka in assay [2] came to 6.21.

`c1ccc2nc3c(nc2c1)c1ccccc1n3CCNCCN1CCOCC1` yielded an Activity in assay [1] of 40%. Further, the log Ka in assay [2] was determined as 6.17.

`CCCN(CCC)CCCCn1c2ccccc2c2nc3ccccc3nc21` yielded an Activity in assay [1] of 13%. This compound also displayed a log Ka in assay [2] of 5.49.

For `CN1CCN(CC(=O)N/N=C2\C(=O)Nc3ccccc32)CC1`, the Activity in assay [1] amounted to 80%. In addition, the log Ka in assay [2] was 5.43.

In assay [1], `CCN(CC)CCCn1c2ccccc2c2nc3ccccc3nc21` came in with an Activity of 30%. The same compound had a log Ka in assay [2] of 6.11.

`CCN(CC)CCN1C(=O)/C(=N\NC(=O)CN2CCC(C)CC2)c2ccccc21` displayed an Activity in assay [1] of 100%. Besides, the log Ka in assay [2] was 6.47.

Turning to `CN1CCN(CCn2c3ccc4ccccc4c3c3nc4ccccc4nc32)CC1`, the Activity in assay [1] worked out at 17%. The log Ka in assay [2] was 6.58.

Turning to `O=C(CCN1CCCCC1)N/N=C1\C(=O)Nc2ccccc21`, in assay [1], the Activity was 0%. The same compound came in with a log Ka in assay [2] of 5.92.

Compound `O=C(Cn1c2ccccc2c2nc3ccccc3nc21)OCCCN1CCOCC1` came in with an Activity in assay [1] of 15%. This compound also had a log Ka in assay [2] of 5.14.
